“And” between values parts separate entries of the source, which are not always exact repeats. Equal values may be shown once.
Key:
[1] = tested on: Human Immunodeficiency Virus; test: Anti-HIV testing in cell culture: inhibition of cell-to-cell transmission of HIV measured as p24 protein production; format: cell-based; conditions: for MEAN P24 value: mean of three tests; for % VIRAL CONCENTRATION: relative to 0.0 μM = 100.0; for P24 value as measurement of HIV concentration: separate efficacy tests (samples 1-3)
Protocol: Testing was performed independently at the NIH using standard testing protocol.

Sprague-Dawley rats = test: In vivo toxicity study in rats, oral administration (gavage); conditions: increasing amounts up to 2 g/kg body weight
Excerpt: (b) Oral Administration: Sprague-Dawley rats weighing approximately 250 g were orally gavaged with increasing amounts of polysulfate polymethylsulfate dextrin dissolved in sterile water up to a dose of 2 g/kg body weight.

polysulfate polymethylsulfate dextrin
MEAN P24 value ([1]; 0.32 μM): 664.0 pg/mL | % VIRAL CONCENTRATION ([1]; 0.32 μM): 96.1% | P24 value as measurement of HIV concentration ([1]; 0.32 μM): 672.3 pg/mL and 654.6 pg/mL and 665.0 pg/mL | MEAN P24 value ([1]; 1.0 μM): 371.5 pg/mL | % VIRAL CONCENTRATION ([1]; 1.0 μM): 53.7% | P24 value as measurement of HIV concentration ([1]; 1.0 μM): 407.1 pg/mL and 351.2 pg/mL and 356.1 pg/mL | MEAN P24 value ([1]; 3.2 μM): 5.5 pg/mL | % VIRAL CONCENTRATION ([1]; 3.2 μM): 0.8% | MEAN P24 value ([1]; 10 μM): -6.1 pg/mL | % VIRAL CONCENTRATION ([1]; 10 μM): −0.9% | MEAN P24 value ([1]; 32 μM): -8.8 pg/mL | % VIRAL CONCENTRATION ([1]; 32 μM): −1.3% | MEAN P24 value ([1]; 100 μM): -27 pg/mL | % VIRAL CONCENTRATION ([1]; 100 μM): −3.9% | IC50 ([1]; average of three separate tests, p24 production, cell-to-cell transmission of HIV, read-out: calculated 50% inhibition (IC50) / average inhibitory concentration 50%): 1160 nM | toxic effects after oral administration (Sprague-Dawley rats): No toxic effects

From patent publication US7902174B2, “Antiviral composition” (priority 2009, dated 2011)
